Counter-ions that a name gives are not always drawn. Like-named read-outs stand apart in the source and are kept apart here.
Key:
[1] = target: purified human Factor XIa (Homo sapiens (Human), UniProt P03951); test: Factor XIa enzyme inhibition assay (chromogenic substrate S-2366)
[2] = target: purified human plasma kallikrein (Homo sapiens (Human), UniProt P03952); test: Plasma kallikrein enzyme inhibition assay (chromogenic substrate S-2302); type: biochemical
[3] = read-out: Factor XIa Ki, measured at 25° C.
[4] = measured at 25° C. (no asterisk)

purified human plasma kallikrein, sequence (P03952 391-638): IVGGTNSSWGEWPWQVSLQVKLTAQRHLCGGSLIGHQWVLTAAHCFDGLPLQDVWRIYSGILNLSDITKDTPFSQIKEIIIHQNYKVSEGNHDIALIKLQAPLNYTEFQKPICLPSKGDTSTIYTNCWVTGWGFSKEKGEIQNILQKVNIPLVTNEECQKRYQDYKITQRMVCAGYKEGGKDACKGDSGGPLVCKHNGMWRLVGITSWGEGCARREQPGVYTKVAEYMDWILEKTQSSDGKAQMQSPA
purified human plasma kallikrein, sequence (P03952 20-390 partner): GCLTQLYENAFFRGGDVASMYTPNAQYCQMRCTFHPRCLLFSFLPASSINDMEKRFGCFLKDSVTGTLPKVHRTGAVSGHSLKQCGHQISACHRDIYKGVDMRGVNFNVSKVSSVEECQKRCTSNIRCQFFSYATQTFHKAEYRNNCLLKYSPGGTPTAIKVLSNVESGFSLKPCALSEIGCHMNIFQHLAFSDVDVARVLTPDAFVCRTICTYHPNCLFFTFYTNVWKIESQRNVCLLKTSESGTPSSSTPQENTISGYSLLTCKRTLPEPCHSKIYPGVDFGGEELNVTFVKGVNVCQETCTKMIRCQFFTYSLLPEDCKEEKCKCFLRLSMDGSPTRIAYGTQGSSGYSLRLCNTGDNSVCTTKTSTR
purified human Factor XIa, sequence (P03951 388-625): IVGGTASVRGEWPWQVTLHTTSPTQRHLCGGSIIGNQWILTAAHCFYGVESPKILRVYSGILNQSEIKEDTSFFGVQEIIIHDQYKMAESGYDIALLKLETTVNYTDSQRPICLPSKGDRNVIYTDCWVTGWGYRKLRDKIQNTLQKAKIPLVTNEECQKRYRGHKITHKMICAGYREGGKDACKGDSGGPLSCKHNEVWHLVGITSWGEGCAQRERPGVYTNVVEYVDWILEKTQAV
purified human Factor XIa, sequence (P03951 19-387 partner): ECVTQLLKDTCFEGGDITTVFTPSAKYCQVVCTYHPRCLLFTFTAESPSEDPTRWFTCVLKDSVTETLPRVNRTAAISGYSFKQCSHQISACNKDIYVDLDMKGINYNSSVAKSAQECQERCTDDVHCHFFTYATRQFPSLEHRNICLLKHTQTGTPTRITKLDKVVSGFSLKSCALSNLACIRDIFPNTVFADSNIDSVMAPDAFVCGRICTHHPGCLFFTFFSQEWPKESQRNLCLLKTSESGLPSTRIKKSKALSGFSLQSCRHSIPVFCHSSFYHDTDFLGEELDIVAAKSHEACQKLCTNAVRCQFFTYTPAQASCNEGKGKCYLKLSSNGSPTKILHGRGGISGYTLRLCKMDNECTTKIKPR

Compound | Ki [2, 4] [µM] | Ki [1] [µM] | also measured
4-(2-(3-Amino-1-(3-chloro-2-fluorophenyl)-1H-pyrazole-4-carbonyl)-5-(4-(2-(dimethylamino)ethoxy)piperidin-1-yl)-1,2,3,4-tetrahydroisoquinoline-1-carboxamido)benzoic acid, 2 TFA salt [Example 319] | 0.00641 |  | Ki [1, 3]: < 0.005 µM
4-(2-(5-amino-1-(3-chloro- 2-fluorophenyl)-1H- pyrazole-4-carbonyl)-5-(4- (pyrrolidin-1- yl)piperidin-1-yl)-1,2,3,4- tetrahydroisoquinoline-1- carboxamido)benzoic acid, 3TFA salt [Example 213] | 0.0122 |  | Ki ([1]; read-out: Factor XIa Ki): < 0.005 µM
4-(2-(5-amino-1-(3-chloro- 2-fluorophenyl)-1H- pyrazole-4-carbonyl)-5-(4- methylpiperazin-1- yl)-1,2,3,4- tetrahydroisoquinoline-1- carboxamido)benzoic acid, 2 TFA salt [Example 212] | 0.00289 |  | Ki [1, 3]: 0.0209 µM
COC1CCN(c2cccc3c2CCN(C(=O)c2nnn(-c4cccc(Cl)c4F)c2C)C3C(=O)Nc2ccc(C(=O)O)cc2)CC1 (racemic) [Example 253, 4-(2-(1-(3-chloro-2-fluorophenyl)-5-methyl-1H-1,2,3-triazole-4-cabonyl)-5-(4-methoxypiperidin-1-yl)-1,2,3,4-tetrahydroisoquinoline-1-carboxamido)benzoic acid, TFA salt] | 0.156 | 0.0111 | 
COC1CCN(c2cccc3c2CCN(C(=O)c2cc(-c4c(F)ccc(Cl)c4F)no2)C3C(=O)Nc2ccc(C(=O)O)cc2)CC1 (racemic) [Example 265, 4-(2-(3-(3-chloro-2,6-difluorophenyl)isoxazole-5-carbonyl)-5-(4-methoxypiperidin-1-yl)-1,2,3,4-tetrahydroisoquinoline-1-carboxamido)benzoic acid, TFA salt] | 0.178 | 0.0132 | 
COC1CCN(c2cccc3c2CCN(C(=O)c2cc(-c4cccc(Cl)c4F)no2)C3C(=O)Nc2ccc(C(=O)O)cc2)CC1 (racemic) [Example 268, 4-(2-(3-(3-chloro-2-fluorophenyl)isoxazole-5-carbonyl)-5-(4-methoxypiperidin-1-yl)-1,2,3,4-tetrahydroisoquinoline-1-carboxamido)benzoic acid, TFA salt] |  | 1.43 | Ki ([2]; measured at 37° C. (*)): 0.178 µM
COC1CCN(c2cccc3c2CCN(C(=O)c2cc(-c4cccc(Cl)c4F)ns2)C3C(=O)Nc2ccc(C(=O)O)cc2)CC1 (racemic) [Example 269, 4-(2-(3-(3-chloro-2-fluorophenyl)isothiazole-5-carbonyl)-5-(4-methoxypiperidin-1-yl)-1,2,3,4-tetrahydroisoquinoline-1-carboxamido)benzoic acid, TFA salt] | 0.205 | 0.0335 | 
COC1CCN(c2cccc3c2CCN(C(=O)c2cnc(-c4cccc(Cl)c4F)s2)C3C(=O)Nc2ccc(C(=O)O)cc2)CC1 (racemic) [Example 270, 4-(2-(2-(3-chloro-2-fluorophenyl)thiazole-5-carbonyl)-5-(4-methoxypiperidin-1-yl)-1,2,3,4-tetrahydroisoquinoline-1-carboxamido)benzoic acid, TFA salt] | 0.269 | 0.0204 | 
O=C(O)c1ccc(NC(=O)[C@H]2c3cccc(N4CCCCC4)c3CCN2C(=O)[C@H]2CC(c3cccc(Cl)c3F)=NO2)cc1 [Example 292, 4-((R)-2-((R)-3-(3-chloro-2-fluorophenyl)-4,5-dihydroisoxazole-5-carbonyl)-5-(piperidin-1-yl)-1,2,3,4-tetrahydroisoquinoline-1-carboxamide)benzoic acid, TFA salt] | 0.758 |  | 
CC(C)c1nnc2n1CCN(c1cccc3c1CCN(C(=O)[C@@H]1CC(c4cccc(Cl)c4F)=NO1)[C@@H]3C(=O)Nc1ccc(C(=O)O)cc1)C2 [Example 338, 4-((S)-2-((S)-3-(3-Chloro-2-fluorophenyl)-4,5-dihydroisoxazole-5-carbonyl)-5-(3-isopropyl-5,6-dihydro-[1,2,4]triazolo[4,3-a]pyrazin-7(8H)-yl)-1,2,3,4-tetrahydroisoquinoline-1-carboxamido)benzoic acid, TFA salt] |  |  | Ki ([2]; measured at 37° C. (*)): 0.251 µM
CC(C)c1nnc2n1CCN(c1cccc3c1CCN(C(=O)[C@@H]1CC(c4cccc(Cl)c4F)=NO1)[C@H]3C(=O)Nc1ccc(C(=O)O)cc1)C2 [Example 339, 4-((R)-2-((S)-3-(3-Chloro-2-fluorophenyl)-4,5-dihydroisoxazole-5-carbonyl)-5-(3-isopropyl-5,6-dihydro-[1,2,4]triazolo[4,3-a]pyrazin-7(8H)-yl)-1,2,3,4-tetrahydroisoquinoline-1-carboxamido)benzoic acid, TFA salt] |  |  | Ki ([2]; measured at 37° C. (*)): 0.0846 µM

Continued, in another order:

Ki [2, 4] [µM] | Ki [1] [µM] | Compound | also measured
0.0158 |  | CO[C@@H]1CCN(c2cccc3c2CCN(C(=O)c2cn(-c4cccc(Cl)c4F)nn2)C3C(=O)Nc2ccc(C(=O)O)cc2)C1 (mixture of isomers) [Example 84, 4-(2-(1-(3-chloro-2-fluorophenyl)-1H-1,2,3-triazole-4-carbonyl)-5-((R)-3-methoxypyrrolidin-1-yl)-1,2,3,4-tetrahydroisoquinoline-1-carboxamido)benzoic acid, TFA salt] | Ki [1, 3]: < 0.005 µM
0.0428 | < 0.005 | COC1CCN(c2cccc3c2CCN(C(=O)c2cnn(-c4cccc(Cl)c4F)c2)C3C(=O)Nc2ccc(C(=O)O)cc2)CC1 (racemic) [Example 252, 4-(2-(1-(3-chloro-2-fluorophenyl)-1H-pyrazole-4-carbonyl)-5-(4-methoxypiperidin-1-yl)-1,2,3,4-tetrahydroisoquinoline-1-carboxamido)benzoic acid, TFA salt] | 
0.0267 | < 0.005 | COC1CCN(c2cccc3c2CCN(C(=O)c2cn(-c4c(F)ccc(Cl)c4F)nn2)C3C(=O)Nc2ccc(C(=O)O)cc2)CC1 (racemic) [Example 254, 4-(2-(1-(3-chloro-2,6-difluorophenyl)-1H-1,2,3-triazole-4-carbonyl)-5-(4-methoxypiperidin-1-yl)-1,2,3,4-tetrahydroisoquinoline-1-carboxamido)benzoic acid, TFA salt] | 
0.0779 | < 0.005 | COC1CCN(c2cccc3c2CCN(C(=O)c2cnn(-c4cccc(Cl)c4F)c2C)C3C(=O)Nc2ccc(C(=O)O)cc2)CC1 (racemic) [Example 259, 4-(2-(1-(3-chloro-2-fluorophenyl)-5-methyl-1H-pyrazole-4-carbonyl)-5-(4-methoxypiperidin-1-yl)-1,2,3,4-tetrahydroisoquinoline-1-carboxamido)benzoic acid, TFA salt] | 
0.0111 | < 0.005 | COC1CCN(c2cccc3c2CCN(C(=O)c2cn(-c4cccc(Cl)c4F)nc2O)C3C(=O)Nc2ccc(C(=O)O)cc2)CC1 (racemic) [Example 264, 4-(2-(1-(3-chloro-2-fluorophenyl)-3-hydroxy-1H-pyrazole-4-carbonyl)-5-(4-methoxypiperidin-1-yl)-1,2,3,4-tetrahydroisoquinoline-1-carboxamido)benzoic acid, TFA salt] | 
0.00765 | < 0.005 | COC1CCN(c2cccc3c2CCN(C(=O)c2cn(-c4cccc(Cl)c4F)cn2)C3C(=O)Nc2ccc(C(=O)O)cc2)CC1 (racemic) [Example 271, 4-(2-(1-(3-chloro-2-fluorophenyl)-1H-imidazole-4-carbonyl)-5-(4-methoxypiperidin-1-yl)-1,2,3,4-tetrahydroisoquinoline-1-carboxamido)benzoic acid, TFA salt] | 
0.00487 | < 0.005 | CN1CCN(c2cccc3c2CCN(C(=O)c2cn(-c4cccc(Cl)c4F)nn2)C3C(=O)Nc2ccc(C(=O)O)cc2)CC1=O (racemic) [Example 274, 4-(2-(1-(3-chloro-2-fluorophenyl)-1H-1,2,3-triazole-4-carbonyl)-5-(4-methyl-3-oxopiperazin-1-yl)-1,2,3,4-tetrahydroisoquinoline-1-carboxamido)benzoic acid, TFA salt] | 
0.0118 | 0.0107 | COc1cccc2c1CCN(C(=O)c1cn(-c3cccc(Cl)c3F)nn1)C2C(=O)Nc1ccc(C(=O)O)cc1 (racemic) [Example 275, 4-(2-(1-(3-chloro-2-fluoroplienyl)-1H-1,2,3-triazole-4-carbonyl)-5-methoxy-1,2,3,4-tetrahydroisoquinoline-1-carboxamido)benzoic acid, TFA salt] | 
0.0152 |  | O=C(O)c1ccc(NC(=O)[C@@H]2c3cccc(N4CCCCC4)c3CCN2C(=O)[C@H]2CC(c3cccc(Cl)c3F)=NO2)cc1 [Example 291, 4-((S)-2-((R)-3-(3-chloro-2-fluorophenyl)-4,5-dihydroisoxazole-5-carbonyl)-5-(piperidin-1-yl)-1,2,3,4-tetrahydroisoquinoline-1-carboxamido)benzoic acid, TFA salt] | 
0.00324 |  | COc1cccc2c1CCN(C(=O)[C@H]1CC(c3cccc(Cl)c3F)=NO1)[C@@H]2C(=O)Nc1ccc(C(=O)O)cc1 [Example 293, 4-((S)-2-((R)-3-(3-chloro-2-fluorophenyl)-4,5-dihydroisoxazole-5-carbonyl)-5-methoxy-1,2,3,4-tetrahydroisoquinoline-1-carboxamide)benzoic acid] | 
0.111 |  | COc1cccc2c1CCN(C(=O)[C@H]1CC(c3cccc(Cl)c3F)=NO1)[C@H]2C(=O)Nc1ccc(C(=O)O)cc1 [Example 294, 4-((R)-2-((R)-3-(3-chloro-2-fluorophenyl)-4,5-dihydroisoxazole-5-carbonyl)-5-methoxy-1,2,3,4-tetrahydroisoquinoline-1-carboxamido)benzoic acid] | 
0.00244 |  | O=C(O)c1ccc(NC(=O)[C@@H]2c3cccc(N4CCOCC4)c3CCN2C(=O)[C@H]2CC(c3cccc(Cl)c3F)=NO2)cc1 [Example 295, 4-((S)-2-((R)-3-(3-chloro-2-fluorophenyl)-4,5-dihydroisoxazole-5-carbonyl)-5-morpholino-1,2,3,4-tetrahydroisoquinoline-1-carboxamido)benzoic acid, TFA salt] | 
